From patent US20060167104A1, “Method for extracting a novel compound from the root of a plant of the pentadiplandraceae family and use of N,N'-dibenzylthiourea as a medicine” (priority 2002, published 2006)

Tests used:
[1] = Fentom method: degradation of deoxyribose by free radicals from xanthine/xanthine oxidase, malondialdehyde measured by colorimetry; format: biochemical; settings: in relation to the control containing no free hydroxyl radical trapper
Method: We used the Fentom method. This method is based on the degradation of deoxyribose by free radicals generated by the xanthine/xanthine oxidase system. This degradation leads to the formation of malondialdehyde which is measured by colorimetry.
In this technique, the trapping of free hydroxyl radicals is translated into a decrease in the formation of malondialdehyde.
N,N′-dibenzylthiourea in solutions of concentration 20, 10 and 5% decreases the production of malondialdehyde by 65, 59 and 51% respectively in relation to the control containing no free hydroxyl radical trapper.

## S=C(NCc1ccccc1)NCc1ccccc1 [N,N′-dibenzylthiourea]
[1]; solution of concentration 5%
  decrease in the production of malondialdehyde: 51%
[1]; solution of concentration 10%
  decrease in the production of malondialdehyde: 59%
[1]; solution of concentration 20%
  decrease in the production of malondialdehyde: 65%
Toxicity statement
  toxicity: non-toxic
